Reference: patent US20130209543A1, “ENHANCED TREATMENT REGIMENS USING MTOR INHIBITORS” (Intellikine LLC, priority 2011, published 2013)

Legend:
[1] = Phase I clinical trial: plasma pharmacokinetics; assay type: in vivo, human; details: for AUC / Cmax: oral
Experimental: Adult patients with histologically confirmed advanced solid tumors were enrolled in a 3+3 dose escalation Phase I study evaluating 3 intermittent schedules of administration for compound A: QW (once weekly), QD×3d QW (3 days on 4 days off), and QD×5d QW (5 days on 2 days off), in comparison with daily dosing (QD). Safety, maximum tolerated dose (MTD), pharmacokinetics (PK) and preliminary antitumor activity were evaluated.

[2] = Additional study: grade 3 or greater treatment-emergent adverse events (Table 10); assay type: in vivo, human

- AUC ([1]; human, plasma, 6 mg QD): 8 µM·h
- Cmax ([1]; human, plasma, 6 mg QD): 150 nM
- AUC ([1]; human, plasma, 10 mg Q5D): 10 µM·h
- Cmax ([1]; human, plasma, 10 mg Q5D): 250 nM
- AUC ([1]; human, plasma, 13 mg Q5D): 13 µM·h
- Cmax ([1]; human, plasma, 13 mg Q5D): 300 nM
- AUC ([1]; human, plasma, 16 mg Q3D): 8 µM·h
- Cmax ([1]; human, plasma, 16 mg Q3D): 350 nM
- AUC ([1]; human, plasma, 20 mg Q3D): 10 µM·h
- Cmax ([1]; human, plasma, 20 mg Q3D): 400 nM
- AUC ([1]; human, plasma, 30 mg QW): 5 µM·h
- Cmax ([1]; human, plasma, 30 mg QW): 600 nM
- AUC ([1]; human, plasma, 40 mg QW): 6.5 µM·h
- Cmax ([1]; human, plasma, 40 mg QW): 700 nM
- Tmax ([1]; human, plasma, oral doses, patients): 0.5 to 4 h
- half-life ([1]; human, plasma, oral doses, patients, read-out: mean elimination plasma t1/2 (converted)): 8 h
- Plasma exposures (Cmax and AUC0-24) versus dose ([1]; oral doses): dose-linear plasma PK
SMILES: CC(C)n1nc(-c2ccc3oc(N)nc3c2)c2c(N)ncnc21 [compound A]
- Anaemia, grade 3 or greater TEAE ([2]; Total (N = 91)): 6 (7%)
- Aspartate aminotransferase increase, grade 3 or greater TEAE ([2]; Total (N = 91)): 2 (2%)
- Asthenia, grade 3 or greater TEAE ([2]; Total (N = 91)): 4 (4%)
- Blood creatinine increase, grade 3 or greater TEAE ([2]; Total (N = 91)): 2 (2%)
- Deep vein thrombosis, grade 3 or greater TEAE ([2]; Total (N = 91)): 2 (2%)
- Diarrhoea, grade 3 or greater TEAE ([2]; Total (N = 91)): 3 (3%)
- Disease progression, grade 3 or greater TEAE ([2]; Total (N = 91)): 2 (2%)
- Fatigue, grade 3 or greater TEAE ([2]; Total (N = 91)): 3 (3%)
- Gamma-glutamyltransferase increase, grade 3 or greater TEAE ([2]; Total (N = 91)): 3 (3%)
- Hyperglycaemia, grade 3 or greater TEAE ([2]; Total (N = 91)): 9 (10%)
- Hypokalaemia, grade 3 or greater TEAE ([2]; Total (N = 91)): 3 (3%)
- Hyponatraemia, grade 3 or greater TEAE ([2]; Total (N = 91)): 2 (2%)
- Hypophsphataemia, grade 3 or greater TEAE ([2]; Total (N = 91)): 5 (5%)
- Lymphopenia, grade 3 or greater TEAE ([2]; Total (N = 91)): 6 (7%)
- Mucosal Inflammation, grade 3 or greater TEAE ([2]; Total (N = 91)): 7 (8%)
- Muscular weakness, grade 3 or greater TEAE ([2]; Total (N = 91)): 2 (2%)
- Nausea, grade 3 or greater TEAE ([2]; Total (N = 91)): 2 (2%)
- Neutropenia, grade 3 or greater TEAE ([2]; Total (N = 91)): 2 (2%)
- Pruritus, grade 3 or greater TEAE ([2]; Total (N = 91)): 3 (3%)
- Rash, grade 3 or greater TEAE ([2]; Total (N = 91)): 9 (10%)
- Thrombocytopenia, grade 3 or greater TEAE ([2]; Total (N = 91)): 2 (2%)
- Vomiting, grade 3 or greater TEAE ([2]; Total (N = 91)): 3 (3%)
- Anaemia, grade 3 or greater TEAE ([2]; Total QD Dosing (N = 29)): 1 (3%)
- Aspartate aminotransferase increase, grade 3 or greater TEAE ([2]; Total QD Dosing (N = 29)): 0 (0%)
- Asthenia, grade 3 or greater TEAE ([2]; Total QD Dosing (N = 29)): 1 (3%)
- Blood creatinine increase, grade 3 or greater TEAE ([2]; Total QD Dosing (N = 29)): 0 (0%)
- Deep vein thrombosis, grade 3 or greater TEAE ([2]; Total QD Dosing (N = 29)): 0 (0%)
- Diarrhoea, grade 3 or greater TEAE ([2]; Total QD Dosing (N = 29)): 1 (3%)
- Disease progression, grade 3 or greater TEAE ([2]; Total QD Dosing (N = 29)): 0 (0%)
- Fatigue, grade 3 or greater TEAE ([2]; Total QD Dosing (N = 29)): 0 (0%)
- Gamma-glutamyltransferase increase, grade 3 or greater TEAE ([2]; Total QD Dosing (N = 29)): 0 (0%)
- Hyperglycaemia, grade 3 or greater TEAE ([2]; Total QD Dosing (N = 29)): 4 (14%)
- Hypokalaemia, grade 3 or greater TEAE ([2]; Total QD Dosing (N = 29)): 2 (7%)
- Hyponatraemia, grade 3 or greater TEAE ([2]; Total QD Dosing (N = 29)): 2 (7%)
- Hypophsphataemia, grade 3 or greater TEAE ([2]; Total QD Dosing (N = 29)): 0 (0%)
- Lymphopenia, grade 3 or greater TEAE ([2]; Total QD Dosing (N = 29)): 2 (7%)
- Mucosal Inflammation, grade 3 or greater TEAE ([2]; Total QD Dosing (N = 29)): 0 (0%)
- Muscular weakness, grade 3 or greater TEAE ([2]; Total QD Dosing (N = 29)): 0 (0%)
- Nausea, grade 3 or greater TEAE ([2]; Total QD Dosing (N = 29)): 0 (0%)
- Neutropenia, grade 3 or greater TEAE ([2]; Total QD Dosing (N = 29)): 0 (0%)
- Pruritus, grade 3 or greater TEAE ([2]; Total QD Dosing (N = 29)): 2 (7%)
- Rash, grade 3 or greater TEAE ([2]; Total QD Dosing (N = 29)): 7 (24%)
- Thrombocytopenia, grade 3 or greater TEAE ([2]; Total QD Dosing (N = 29)): 2 (7%)
- Vomiting, grade 3 or greater TEAE ([2]; Total QD Dosing (N = 29)): 0 (0%)
- Anaemia, grade 3 or greater TEAE ([2]; Total QDx3d QW (N = 25)): 2 (8%)
- Aspartate aminotransferase increase, grade 3 or greater TEAE ([2]; Total QDx3d QW (N = 25)): 0 (0%)
- Asthenia, grade 3 or greater TEAE ([2]; Total QDx3d QW (N = 25)): 1 (4%)
- Blood creatinine increase, grade 3 or greater TEAE ([2]; Total QDx3d QW (N = 25)): 2 (8%)
- Deep vein thrombosis, grade 3 or greater TEAE ([2]; Total QDx3d QW (N = 25)): 1 (4%)
- Diarrhoea, grade 3 or greater TEAE ([2]; Total QDx3d QW (N = 25)): 1 (4%)
- Disease progression, grade 3 or greater TEAE ([2]; Total QDx3d QW (N = 25)): 0 (0%)
- Fatigue, grade 3 or greater TEAE ([2]; Total QDx3d QW (N = 25)): 0 (0%)
- Gamma-glutamyltransferase increase, grade 3 or greater TEAE ([2]; Total QDx3d QW (N = 25)): 1 (4%)
- Hyperglycaemia, grade 3 or greater TEAE ([2]; Total QDx3d QW (N = 25)): 4 (16%)
- Hypokalaemia, grade 3 or greater TEAE ([2]; Total QDx3d QW (N = 25)): 0 (0%)
- Hyponatraemia, grade 3 or greater TEAE ([2]; Total QDx3d QW (N = 25)): 0 (0%)
- Hypophsphataemia, grade 3 or greater TEAE ([2]; Total QDx3d QW (N = 25)): 3 (12%)
- Lymphopenia, grade 3 or greater TEAE ([2]; Total QDx3d QW (N = 25)): 2 (8%)
- Mucosal Inflammation, grade 3 or greater TEAE ([2]; Total QDx3d QW (N = 25)): 4 (16%)
- Muscular weakness, grade 3 or greater TEAE ([2]; Total QDx3d QW (N = 25)): 1 (4%)
- Nausea, grade 3 or greater TEAE ([2]; Total QDx3d QW (N = 25)): 1 (4%)
- Neutropenia, grade 3 or greater TEAE ([2]; Total QDx3d QW (N = 25)): 0 (0%)
- Pruritus, grade 3 or greater TEAE ([2]; Total QDx3d QW (N = 25)): 1 (4%)
- Rash, grade 3 or greater TEAE ([2]; Total QDx3d QW (N = 25)): 1 (4%)
- Thrombocytopenia, grade 3 or greater TEAE ([2]; Total QDx3d QW (N = 25)): 0 (0%)
- Vomiting, grade 3 or greater TEAE ([2]; Total QDx3d QW (N = 25)): 1 (4%)
- Anaemia, grade 3 or greater TEAE ([2]; Total QDx5d QW (N = 15)): 1 (7%)
- Aspartate aminotransferase increase, grade 3 or greater TEAE ([2]; Total QDx5d QW (N = 15)): 1 (7%)
- Asthenia, grade 3 or greater TEAE ([2]; Total QDx5d QW (N = 15)): 1 (7%)
- Blood creatinine increase, grade 3 or greater TEAE ([2]; Total QDx5d QW (N = 15)): 0 (0%)
- Deep vein thrombosis, grade 3 or greater TEAE ([2]; Total QDx5d QW (N = 15)): 0 (0%)
- Diarrhoea, grade 3 or greater TEAE ([2]; Total QDx5d QW (N = 15)): 0 (0%)
- Disease progression, grade 3 or greater TEAE ([2]; Total QDx5d QW (N = 15)): 0 (0%)
- Fatigue, grade 3 or greater TEAE ([2]; Total QDx5d QW (N = 15)): 2 (13%)
- Gamma-glutamyltransferase increase, grade 3 or greater TEAE ([2]; Total QDx5d QW (N = 15)): 1 (7%)
- Hyperglycaemia, grade 3 or greater TEAE ([2]; Total QDx5d QW (N = 15)): 1 (7%)
- Hypokalaemia, grade 3 or greater TEAE ([2]; Total QDx5d QW (N = 15)): 0 (0%)
- Hyponatraemia, grade 3 or greater TEAE ([2]; Total QDx5d QW (N = 15)): 0 (0%)
- Hypophsphataemia, grade 3 or greater TEAE ([2]; Total QDx5d QW (N = 15)): 2 (13%)
- Lymphopenia, grade 3 or greater TEAE ([2]; Total QDx5d QW (N = 15)): 1 (7%)
- Mucosal Inflammation, grade 3 or greater TEAE ([2]; Total QDx5d QW (N = 15)): 3 (20%)
- Muscular weakness, grade 3 or greater TEAE ([2]; Total QDx5d QW (N = 15)): 0 (0%)
- Nausea, grade 3 or greater TEAE ([2]; Total QDx5d QW (N = 15)): 1 (7%)
- Neutropenia, grade 3 or greater TEAE ([2]; Total QDx5d QW (N = 15)): 1 (7%)
- Pruritus, grade 3 or greater TEAE ([2]; Total QDx5d QW (N = 15)): 0 (0%)
- Rash, grade 3 or greater TEAE ([2]; Total QDx5d QW (N = 15)): 1 (7%)
- Thrombocytopenia, grade 3 or greater TEAE ([2]; Total QDx5d QW (N = 15)): 0 (0%)
- Vomiting, grade 3 or greater TEAE ([2]; Total QDx5d QW (N = 15)): 1 (7%)
- Anaemia, grade 3 or greater TEAE ([2]; Total QW Dosing (N = 22)): 2 (9%)
- Aspartate aminotransferase increase, grade 3 or greater TEAE ([2]; Total QW Dosing (N = 22)): 1 (5%)
- Asthenia, grade 3 or greater TEAE ([2]; Total QW Dosing (N = 22)): 1 (5%)
- Blood creatinine increase, grade 3 or greater TEAE ([2]; Total QW Dosing (N = 22)): 0 (0%)
- Deep vein thrombosis, grade 3 or greater TEAE ([2]; Total QW Dosing (N = 22)): 1 (5%)
- Diarrhoea, grade 3 or greater TEAE ([2]; Total QW Dosing (N = 22)): 1 (5%)
- Disease progression, grade 3 or greater TEAE ([2]; Total QW Dosing (N = 22)): 2 (9%)
- Fatigue, grade 3 or greater TEAE ([2]; Total QW Dosing (N = 22)): 1 (5%)
- Gamma-glutamyltransferase increase, grade 3 or greater TEAE ([2]; Total QW Dosing (N = 22)): 1 (5%)
- Hyperglycaemia, grade 3 or greater TEAE ([2]; Total QW Dosing (N = 22)): 0 (0%)
- Hypokalaemia, grade 3 or greater TEAE ([2]; Total QW Dosing (N = 22)): 1 (5%)
- Hyponatraemia, grade 3 or greater TEAE ([2]; Total QW Dosing (N = 22)): 0 (0%)
- Hypophsphataemia, grade 3 or greater TEAE ([2]; Total QW Dosing (N = 22)): 0 (0%)
- Lymphopenia, grade 3 or greater TEAE ([2]; Total QW Dosing (N = 22)): 1 (5%)
- Mucosal Inflammation, grade 3 or greater TEAE ([2]; Total QW Dosing (N = 22)): 0 (0%)
- Muscular weakness, grade 3 or greater TEAE ([2]; Total QW Dosing (N = 22)): 1 (5%)
- Nausea, grade 3 or greater TEAE ([2]; Total QW Dosing (N = 22)): 0 (0%)
- Neutropenia, grade 3 or greater TEAE ([2]; Total QW Dosing (N = 22)): 1 (5%)
- Pruritus, grade 3 or greater TEAE ([2]; Total QW Dosing (N = 22)): 0 (0%)
- Rash, grade 3 or greater TEAE ([2]; Total QW Dosing (N = 22)): 0 (0%)
- Thrombocytopenia, grade 3 or greater TEAE ([2]; Total QW Dosing (N = 22)): 0 (0%)
- Vomiting, grade 3 or greater TEAE ([2]; Total QW Dosing (N = 22)): 1 (5%)
